Results as given in US7041698B2, “Hepatitis C virus inhibitors” (Bristol-Myers Squibb Company, priority 2002, dated 2006).
Read-outs that look alike come from different tables or passages of the source.

Columns and labels:
[1] = target: T1, HCV NS3/4A protease complex (UniProt P27958, C1454S/C1711G, species not given); assay: Recombinant HCV NS3/4A protease complex FRET peptide assay (strain not stated); type: biochemical
T1 construct: fused on or other part: Three-lysine solubilising tail at the C-terminus of NS4A

[2] = tested on: HCV replicon in Huh7 cells; assay: HCV replicon cell-based assay; design: species or system HCV strain 1B; settings: Hepatitis C virus, Huh-7, 96 h, HCV replicon, 4 days, read-out: EC50 range
Summary of the method: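 Huh7 cells carrying a genotype 1b subgenomic replicon (NS3-NS5B, neo) treated 4 days at 37° C with compound (0.5% DMSO final). NS3 protease activity read in lysates with 10 μM FRET peptide (340/490 nm, kinetic), giving EC50. Confirmed by Taqman qRT-PCR of HCV RNA and a Renilla luciferase replicon.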

[3] = HCV NS3/4A protease enzyme assay, read-out: IC50 range
[4] = read-out: IC50 range, HCV NS3/4A protease enzyme assay

`C=CC1C[C@]1(NC(=O)[C@@H]1C[C@@H](OC(=O)Nc2cccc(C(=O)OC)c2)CN1C(=O)[C@@H](NC(=O)OC(C)(C)C)C(C)(C)C)C(=O)NS(=O)(=O)C1CC1` (stereo partly drawn) [Compound 40, BocNH-P3(t-BuGly)-P2(Hyp(O—CO(NH—(3-benzoic acid methyl ester))))-P1(1R,2S VinylAcca)—CONHSO2Cyclopropane] gave an IC50 [1, 3] of under 0.1 µM and an EC50 [2] of 1 to 10 µM.

With `C=CC1C[C@]1(NC(=O)[C@@H]1C[C@@H](OC(=O)Nc2ccc(OC)cc2[N+](=O)[O-])CN1C(=O)[C@@H](NC(=O)OC(C)(C)C)C(C)(C)C)C(=O)NS(=O)(=O)C1CC1` (stereo partly drawn) [Compound 41, BocNH-P3(t-BuGly)-P2(Hyp(O—CO(NH—(4-Methoxy-2-nitro-phenyl))))-P1(1R,2S VinylAcca)—CONHSO2Cyclopropane] the IC50 [1, 3] was under 0.1 µM and the EC50 [2] was 1 to 10 µM.

`C=CC1C[C@]1(NC(=O)[C@@H]1C[C@@H](OC(=O)Nc2cccc(C)c2C)CN1C(=O)[C@@H](NC(=O)OC(C)(C)C)C(C)(C)C)C(=O)NS(=O)(=O)C1CC1` (stereo partly drawn) [Compound 42, BocNH-P3(t-BuGly)-P2(Hyp(O—CO(NH—(2,3-Dimethyl-phenyl))))-P1(1R,2S VinylAcca)—CONHSO2Cyclopropane] gave an IC50 [1, 3] of under 0.1 µM and an EC50 [2] of 1 to 10 µM.

Compound `C=CC1C[C@]1(NC(=O)[C@@H]1C[C@@H](OC(=O)N(C)C)CN1C(=O)[C@@H](NC(=O)OC(C)(C)C)C(C)(C)C)C(=O)NS(=O)(=O)C1CC1` (stereo partly drawn) [Compound 43, BocNH-P3(t-BuGly)-P2(Hyp(O—CO(N,N-dimethyl)))-P1(1R,2S VinylAcca)—CONHSO2Cyclopropane] has an IC50 [1, 4] of 0.1 to 1 µM and an EC50 [2] of over 10 µM.

In the case of `C=CC1C[C@]1(NC(=O)[C@@H]1C[C@@H](OC(=O)N(CC)CC)CN1C(=O)[C@@H](NC(=O)OC(C)(C)C)C(C)(C)C)C(=O)NS(=O)(=O)C1CC1` (stereo partly drawn) [Compound 44, BocNH-P3(t-BuGly)-P2(Hyp(O—CO(N,N-diethyl)))-P1(1R,2S VinylAcca)—CONHSO2Cyclopropane], the IC50 [1, 4] is reported as under 0.1 µM and the EC50 [2] is reported as 1 to 10 µM.

With `C=CC1C[C@]1(NC(=O)[C@@H]1C[C@@H](OC(=O)N(C(C)C)C(C)C)CN1C(=O)[C@@H](NC(=O)OC(C)(C)C)C(C)(C)C)C(=O)NS(=O)(=O)C1CC1` (stereo partly drawn) [Compound 45, BocNH-P3(t-BuGly)-P2(Hyp(O—CO(N,N-diisopropyl)))-P1(1R,2S VinylAcca)—CONHSO2Cyclopropane] the IC50 [1, 4] was under 0.1 µM and the EC50 [2] was 0.1 to 1 µM.

`C=CC1C[C@]1(NC(=O)[C@@H]1C[C@@H](OC(=O)N(CCCC)CCCC)CN1C(=O)[C@@H](NC(=O)OC(C)(C)C)C(C)(C)C)C(=O)NS(=O)(=O)C1CC1` (stereo partly drawn) [Compound 46, BocNH-P3(t-BuGly)-P2(Hyp(O—CO(N,N-dibutyl)))-P1(1R,2S VinylAcca)—CONHSO2Cyclopropane] showed an IC50 [1, 3] of 0.1 to 1 µM and an EC50 [2] of 1 to 10 µM.

`C=CC1C[C@]1(NC(=O)[C@@H]1C[C@@H](OC(=O)Nc2cccc(C(C)=O)c2)CN1C(=O)[C@@H](NC(=O)OC(C)(C)C)C(C)(C)C)C(=O)NS(=O)(=O)C1CC1` (stereo partly drawn) [Compound 47, BocNH-P3(t-BuGly)-P2(Hyp(O—CO(NH—(3-acetyl-phenyl))))-P1(1R,2S VinylAcca)—CONHSO2Cyclopropane] gave an IC50 [1, 3] of 0.1 to 1 µM and an EC50 [2] of over 10 µM.

`C=CC1C[C@]1(NC(=O)[C@@H]1C[C@@H](OC(=O)Nc2ccccc2C(=O)OC(C)C)CN1C(=O)[C@@H](NC(=O)OC(C)(C)C)C(C)(C)C)C(=O)NS(=O)(=O)C1CC1` (stereo partly drawn) [Compound 48, BocNH-P3(t-BuGly)-P2(Hyp(O—CO(NH—(2-benzoic acid isopropyl ester))))-P1(1R,2S VinylAcca)—CONHSO2Cyclopropane] gave an IC50 [1, 3] of under 0.1 µM and an EC50 [2] of 0.1 to 1 µM.

`C=CC1C[C@]1(NC(=O)[C@@H]1C[C@@H](OC(=O)Nc2sc3c(c2C(=O)OCC)CCCC3)CN1C(=O)[C@@H](NC(=O)OC(C)(C)C)C(C)(C)C)C(=O)NS(=O)(=O)C1CC1` (stereo partly drawn) [Compound 49, BocNH-P3(t-BuGly)-P2(Hyp(O—CO(NH-2-(4,5,6,7-tetrahydro-benzo[b]thiophene-3-carboxylic acid ethyl ester))))-P1(1R,2S VinylAcca)—CONHSO2Cyclopropane] showed an IC50 [1, 3] of 0.1 to 1 µM and an EC50 [2] of 1 to 10 µM.

Compound `C=CC1C[C@]1(NC(=O)[C@@H]1C[C@@H](OC(=O)Nc2cc(C)cc(C)c2)CN1C(=O)[C@@H](NC(=O)OC(C)(C)C)C(C)(C)C)C(=O)NS(=O)(=O)C1CC1` (stereo partly drawn) [Compound 50, BocNH-P3(t-BuGly)-P2(Hyp(O—CO(NH—(3,5-dimethyl-phenyl))))-P1(1R,2S VinylAcca)—CONHSO2Cyclopropane] has an IC50 [1, 3] of under 0.1 µM and an EC50 [2] of 1 to 10 µM.

For `C=CC1C[C@]1(NC(=O)[C@@H]1C[C@@H](OC(=O)Nc2ccccc2F)CN1C(=O)[C@@H](NC(=O)OC(C)(C)C)C(C)(C)C)C(=O)NS(=O)(=O)C1CC1` (stereo partly drawn) [Compound 51, BocNH-P3(t-BuGly)-P2(Hyp(O—CO(NH—(2-fluoro-phenyl))))-P1(1R,2S VinylAcca)—CONHSO2Cyclopropane], the IC50 [1, 3] was 0.1 to 1 µM and the EC50 [2] was 1 to 10 µM.

For `C=CC1C[C@]1(NC(=O)[C@@H]1C[C@@H](OC(=O)Nc2c(F)cccc2F)CN1C(=O)[C@@H](NC(=O)OC(C)(C)C)C(C)(C)C)C(=O)NS(=O)(=O)C1CC1` (stereo partly drawn) [Compound 52, BocNH-P3(t-BuGly)-P2(Hyp(O—CO(NH—(2,6-difluorophenyl))))-P1(1R,2S VinylAcca)—CONHSO2Cyclopropane], the IC50 [1, 3] was 0.1 to 1 µM and the EC50 [2] was over 10 µM.

Work on `C=CC1C[C@]1(NC(=O)[C@@H]1C[C@@H](OC(=O)Nc2ccccc2Cl)CN1C(=O)[C@@H](NC(=O)OC(C)(C)C)C(C)(C)C)C(=O)NS(=O)(=O)C1CC1` (stereo partly drawn) [Compound 53, BocNH-P3(t-BuGly)-P2(Hyp(O—CO(NH—(2-chloro-phenyl))))-P1(1R,2S VinylAcca)—CONHSO2Cyclopropane] yielded an IC50 [1, 3] of under 0.1 µM and an EC50 [2] of 1 to 10 µM.

Work on `C=CC1C[C@]1(NC(=O)[C@@H]1C[C@@H](OC(=O)Nc2c(Cl)cccc2Cl)CN1C(=O)[C@@H](NC(=O)OC(C)(C)C)C(C)(C)C)C(=O)NS(=O)(=O)C1CC1` (stereo partly drawn) [Compound 54, BocNH-P3(t-BuGly)-P2(Hyp(O—CO(NH—(2,6-dichloro-phenyl))))-P1(1R,2S VinylAcca)—CONHSO2Cyclopropane] yielded an IC50 [1, 3] of 0.1 to 1 µM and an EC50 [2] of 1 to 10 µM.

`C=CC1C[C@]1(NC(=O)[C@@H]1C[C@@H](OC(=O)Nc2ccccc2OC)CN1C(=O)[C@@H](NC(=O)OC(C)(C)C)C(C)(C)C)C(=O)NS(=O)(=O)C1CC1` (stereo partly drawn) [Compound 55, BocNH-P3(t-BuGly)-P2(Hyp(O—CO(NH—(2-methoxy-phenyl))))-P1(1R,2S VinylAcca)—CONHSO2Cyclopropane] was tested, and the IC50 [1, 3] was under 0.1 µM and the EC50 [2] was 0.1 to 1 µM.

`C=CC1C[C@]1(NC(=O)[C@@H]1C[C@@H](OC(=O)Nc2ccccc2OCC)CN1C(=O)[C@@H](NC(=O)OC(C)(C)C)C(C)(C)C)C(=O)NS(=O)(=O)C1CC1` (stereo partly drawn) [Compound 56, BocNH-P3(t-BuGly)-P2(Hyp(O—CO(NH—(2-ethoxy-phenyl))))-P1(1R,2S VinylAcca)—CONHSO2Cyclopropane] showed an IC50 [1, 3] of under 0.1 µM and an EC50 [2] of 0.1 to 1 µM.

`C=CC1C[C@]1(NC(=O)[C@@H]1C[C@@H](OC(=O)Nc2ccccc2C)CN1C(=O)[C@@H](NC(=O)OC(C)(C)C)C(C)(C)C)C(=O)NS(=O)(=O)C1CC1` (some centres unmarked) [Compound 57] was tested, and the IC50 [1, 3] was 0.1 to 1 µM and the EC50 [2] was 1 to 10 µM.

Work on `C=CC1C[C@]1(NC(=O)[C@@H]1C[C@@H](OC(=O)Nc2ccccc2CC)CN1C(=O)[C@@H](NC(=O)OC(C)(C)C)C(C)(C)C)C(=O)NS(=O)(=O)C1CC1` (stereo partly drawn) [Compound 59, BocNH-P3(t-BuGly)-P2(Hyp(O—CO(NH—(2-ethyl-phenyl))))-P1(1R,2S VinylAcca)—CONHSO2Cyclopropane] yielded an IC50 [1, 3] of 0.1 to 1 µM and an EC50 [2] of 1 to 10 µM.

With `C=CC1C[C@]1(NC(=O)[C@@H]1C[C@@H](OC(=O)Nc2ccccc2[N+](=O)[O-])CN1C(=O)[C@@H](NC(=O)OC(C)(C)C)C(C)(C)C)C(=O)NS(=O)(=O)C1CC1` (stereo partly drawn) [Compound 60, BocNH-P3(t-BuGly)-P2(Hyp(O—CO(NH—(2-nitro-phenyl))))-P1(1R,2S VinylAcca)—CONHSO2Cyclopropane] the IC50 [1, 3] was under 0.1 µM and the EC50 [2] was 0.1 to 1 µM.

Compound `C=CC1C[C@]1(NC(=O)[C@@H]1C[C@@H](OC(=O)Nc2c(C)cccc2Cl)CN1C(=O)[C@@H](NC(=O)OC(C)(C)C)C(C)(C)C)C(=O)NS(=O)(=O)C1CC1` (stereo partly drawn) [Compound 63, BocNH-P3(t-BuGly)-P2(Hyp(O—CO(NH—(2-chloro-6-methyl))))-P1(1R,2S VinylAcca)—CONHSO2Cyclopropane] has an IC50 [1, 3] of 0.1 to 1 µM and an EC50 [2] of 1 to 10 µM.

`C=CC1C[C@]1(NC(=O)[C@@H]1C[C@@H](OC(=O)Nc2ccccc2C(=O)OCCCC)CN1C(=O)[C@@H](NC(=O)OC(C)(C)C)C(C)(C)C)C(=O)NS(=O)(=O)C1CC1` (stereo partly drawn) [Compound 64, BocNH-P3(t-BuGly)-P2(Hyp(O—CO(NH—(2-benzoic acid butyl ester))))-P1(1R,2S VinylAcca)—CONHSO2Cyclopropane] showed an IC50 [1, 3] of under 0.1 µM and an EC50 [2] of 0.1 to 1 µM.

`C=CC1C[C@]1(NC(=O)[C@@H]1C[C@@H](OC(=O)Nc2ccccc2I)CN1C(=O)[C@@H](NC(=O)OC(C)(C)C)C(C)(C)C)C(=O)NS(=O)(=O)C1CC1` (stereo partly drawn) [Compound 65, BocNH-P3(t-BuGly)-P2(Hyp(O—CO(NH—(2-iodo-phenyl))))-P1(1R,2S VinylAcca)—CONHSO2Cyclopropane] was tested, and the IC50 [1, 3] was under 0.1 µM and the EC50 [2] was 0.1 to 1 µM.

With `C=CC1C[C@]1(NC(=O)[C@@H]1C[C@@H](OC(=O)Nc2ccccc2CCC)CN1C(=O)[C@@H](NC(=O)OC(C)(C)C)C(C)(C)C)C(=O)NS(=O)(=O)C1CC1` (stereo partly drawn) [Compound 66, BocNH-P3(t-BuGly)-P2(Hyp(O—CO(NH—(2-propyl-phenyl))))-P1(1R,2S VinylAcca)—CONHSO2Cyclopropane] the IC50 [1, 3] was under 0.1 µM and the EC50 [2] was 1 to 10 µM.

For `C=CC1C[C@]1(NC(=O)[C@@H]1C[C@@H](OC(=O)Nc2ccccc2Oc2ccccc2)CN1C(=O)[C@@H](NC(=O)OC(C)(C)C)C(C)(C)C)C(=O)NS(=O)(=O)C1CC1` (stereo partly drawn) [Compound 67, BocNH-P3(t-BuGly)-P2(Hyp(O—CO(NH—(2-phenoxy-phenyl))))-P1(1R,2S VinylAcca)—CONHSO2Cyclopropane], the IC50 [1, 3] was under 0.1 µM and the EC50 [2] was 0.1 to 1 µM.
